Data as given in ChEMBL document CHEMBL6096738, “Optimization of Single Relaxin B-Chain Peptide Leads to the Identification of R2R01, a Potent, Long-Acting RXFP1 Agonist for Cardiovascular and Renal Diseases” (J Med Chem, 2025).
Starred links: 1 amine or outer side, 2 acyl side, 3 side chain; linkers in the order of their positions; H or OH if unused. Non-standard residues stand in square brackets, D forms with d. Residues, ends and D or L forms follow the SMILES beside them. Groups on a side chain read outwards from the residue. *: point of attachment. X2 = CCCCCCCCCCCCCCCC(=O)N[C@@H](CCC(=O)N[C@@H](CCC(=O)N[C@@H](CCC(=O)NCCCOCCOCCOCCCNC(=O)CCC(=O)NCCCOCCOCCOCCCNC(=O)CCC(=O)NCCCOCCOCCOCCCN*)C(=O)O)C(=O)O)C(=O)O; γGlu = O=C(O)[C@H](CCC(=O)[*:2])N[*:1]; Palmitoyl = CCCCCCCCCCCCCCCC(=O)*; Suc = O=C(CCC(=O)[*:2])[*:1]; αMeK = C[C@](N)(CCCCN)C(=O)O; Nle = CCCC[C@H](N)C(=O)O; AEEA = NCCOCCOCC(=O)O; Aib = CC(C)(N)C(=O)O

What was measured:
Relaxin receptor 1 [1] = molecular target: T1, Relaxin receptor 1 (Homo sapiens, UniProt Q9HBX9); assay: Agonist activity at human RXFP1 expressed in human OVCAR-5 cells assessed as intracellular cAMP accumulation incubated for 30 mins by HTRF assay; format: functional, cell-based
T1 sequence (Q9HBX9 whole entry): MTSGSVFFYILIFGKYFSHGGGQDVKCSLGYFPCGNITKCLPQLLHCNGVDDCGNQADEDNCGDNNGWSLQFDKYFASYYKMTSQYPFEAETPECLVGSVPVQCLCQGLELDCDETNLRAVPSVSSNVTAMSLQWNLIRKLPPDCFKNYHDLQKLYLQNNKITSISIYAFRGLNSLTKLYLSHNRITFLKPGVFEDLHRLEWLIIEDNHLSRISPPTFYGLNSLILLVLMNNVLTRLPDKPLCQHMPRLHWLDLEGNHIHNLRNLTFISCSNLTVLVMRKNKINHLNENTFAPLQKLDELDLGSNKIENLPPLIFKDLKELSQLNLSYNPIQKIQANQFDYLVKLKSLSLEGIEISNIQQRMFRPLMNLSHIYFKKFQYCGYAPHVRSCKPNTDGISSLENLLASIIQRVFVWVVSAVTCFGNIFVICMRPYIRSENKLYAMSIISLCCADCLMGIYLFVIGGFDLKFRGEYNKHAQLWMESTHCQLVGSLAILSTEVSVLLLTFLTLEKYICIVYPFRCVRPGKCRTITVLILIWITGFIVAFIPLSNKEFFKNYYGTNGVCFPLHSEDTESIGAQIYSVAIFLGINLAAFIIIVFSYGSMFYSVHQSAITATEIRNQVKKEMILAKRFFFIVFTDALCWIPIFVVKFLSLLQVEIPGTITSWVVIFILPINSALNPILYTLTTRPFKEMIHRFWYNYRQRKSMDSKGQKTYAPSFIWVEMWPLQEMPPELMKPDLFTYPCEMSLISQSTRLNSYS

[2] = molecular target: T2, Relaxin receptor 1 (Homo sapiens) (UniProt Q9HBX9); assay: Agonist activity at human RXFP1 expressed in human OVCAR-5 cells assessed as intracellular cAMP accumulation by measuring maximal efficacy incubated for 30 mins by HTRF assay relative to control; format: functional, cell-based; conditions: filed as agonist
T2 sequence (whole entry): T1 sequence (Q9HBX9 whole entry)

[3] = Induction of mast cell degranulation in human LAD2 cells assessed as beta-hexosaminidase release by measuring 4-methylumbelliferyl N-acetyl-beta-D-glucosaminide hydrolysis incubated for 30 mins by plate reader analysis; format: toxicity, cell-based; conditions: probe 4-methylumbelliferyl N-acetyl-beta-D-glucosaminide
[4] = Induction of mast cell degranulation in human LAD2 cells assessed as beta-hexosaminidase release by measuring maximal efficacy of 4-methylumbelliferyl N-acetyl-beta-D-glucosaminide hydrolysis at 100 uM incubated for 30 mins by plate reader analysis relative to control; format: toxicity, cell-based; conditions: probe 4-methylumbelliferyl N-acetyl-beta-D-glucosaminide
Relaxin receptor 1 [5] = molecular target: T1, Relaxin receptor 1; assay: Agonist activity at human RXFP1 expressed in 2%HSA treated human OVCAR-5 cells assessed as intracellular cAMP accumulation incubated for 30 mins with 2% HSA pretreated compound by HTRF assay; format: functional, cell-based
[6] = molecular target: T2, Relaxin receptor 1 (Homo sapiens); assay: Agonist activity at human RXFP1 expressed in 2%HSA treated human OVCAR-5 cells assessed as intracellular cAMP accumulation by measuring maximal efficacy incubated for 30 mins with 2% HSA pretreated compound by HTRF assay relative to control; format: functional, cell-based; conditions: filed as agonist
[7] = Induction of mast cell degranulation in human LAD2 cells assessed as beta-hexosaminidase release by measuring maximal efficacy of 4-methylumbelliferyl N-acetyl-beta-D-glucosaminide hydrolysis at 33 uM incubated for 30 mins by plate reader analysis relative to control; format: toxicity, cell-based; conditions: probe 4-methylumbelliferyl N-acetyl-beta-D-glucosaminide
[8] = Half-life in male Sprague-Dawley rat at 1 mg/kg, iv measured after 198 hrs by LC-HRMS analysis; format: ADME, organism-based; conditions: in vivo

Compound | EC50 (Relaxin receptor 1 [1]) [nM] | Emax [2] [%] | EC50 at 30 min [3] [nM] | Emax at 0.5 h, 100 µM [4] [%] | EC50 (Relaxin receptor 1 [5]) [nM] | Emax [6] [%] | Emax at 0.5 h, 33 µM [7] [%] | half-life [8] [h]
CCCCCCCCCCCCCCCC(=O)N[C@H](CCC(=O)N[C@H](CCC(=O)N[C@H](CCC(=O)NCCCOCCOCCOCCCNC(=O)CCC(=O)NCCCOCCOCCOCCCNC(=O)CCC(=O)NCCCOCCOCCOCCCNC(=O)CCC(=O)NCCCC[C@H](NC(=O)[C@H](CO)NC(=O)[C@H](Cc1c[nH]c2ccccc12)NC(=O)[C@@H](NC(=O)[C@H](CO)NC(=O)[C@H](CCC(N)=O)NC(=O)CNC(=O)[C@H](CCC(=O)O)NC(=O)C(C)(C)NC(=O)C(C)(C)NC(=O)[C@@H](NC(=O)[C@H](CCCCNC(C)=O)NC(=O)[C@H](C)NC(=O)[C@H](CCCNC(=N)N)NC(=O)[C@@H](NC(=O)[C@H](CCCCN)NC(=O)[C@H](CCC(=O)O)NC(=O)[C@H](CCCNC(=N)N)NC(=O)CNC(=O)[C@H](CCC(=O)O)NC(=O)[C@H](CC(C)C)NC(C)=O)C(C)C)[C@@H](C)CC)[C@H](C)O)C(=O)N[C@@H](CCCNC(=N)N)C(=O)N[C@@H](CCCCN)C(=O)N[C@@H](CCCCNC(C)=O)C(N)=O)C(=O)O)C(=O)O)C(=O)O | 0.38 | 94 | 13400 | 24 | 90 | 92 |  | 
CCCCCCCCCCCCCCCC(=O)N[C@@H](CCC(=O)N[C@@H](CCC(=O)N[C@@H](CCC(=O)NCCCOCCOCCOCCCNC(=O)CCC(=O)NCCCOCCOCCOCCCNC(=O)CCC(=O)NCCCOCCOCCOCCCNC(=O)CCC(=O)NCCCC[C@H](NC(=O)[C@@H](NC(=O)[C@H](CCCCNC(C)=O)NC(=O)[C@H](C)NC(=O)[C@H](CCCNC(=N)N)NC(=O)[C@@H](NC(=O)[C@H](CCCCN)NC(=O)[C@H](CCC(=O)O)NC(=O)[C@H](CCCNC(=N)N)NC(=O)CNC(=O)[C@H](CCC(=O)O)NC(=O)[C@H](CC(C)C)NC(C)=O)C(C)C)[C@@H](C)CC)C(=O)NC(C)(C)C(=O)N[C@@H](CCC(=O)O)C(=O)NCC(=O)N[C@@H](CCC(N)=O)C(=O)N[C@@H](CO)C(=O)N[C@H](C(=O)N[C@@H](Cc1c[nH]c2ccccc12)C(=O)N[C@@H](CO)C(=O)NC(C)(C)C(=O)N[C@@H](CCCNC(=N)N)C(=O)N[C@@H](CCCCN)C(=O)N[C@@H](CCCCNC(C)=O)C(N)=O)[C@@H](C)O)C(=O)O)C(=O)O)C(=O)O (Ac-LEGREKVRAK(Ac)IK([Suc-X2])[Aib]EGQSTWS[Aib]RKK(Ac)-NH2) | 0.21 | 87 | 13600 | 11 | 80 | 90 |  | 
CCCCCCCCCCCCCCCC(=O)N[C@@H](CCC(=O)N[C@@H](CCC(=O)N[C@@H](CCC(=O)NCCCOCCOCCOCCCNC(=O)CCC(=O)NCCCOCCOCCOCCCNC(=O)CCC(=O)NCCCOCCOCCOCCCNC(=O)CCC(=O)NCCCC[C@H](NC(=O)CNC(=O)[C@H](CCC(=O)O)NC(=O)C(C)(C)NC(=O)C(C)(C)NC(=O)[C@@H](NC(=O)[C@H](CCCCNC(C)=O)NC(=O)[C@H](C)NC(=O)[C@H](CCCNC(=N)N)NC(=O)[C@@H](NC(=O)[C@H](CCCCN)NC(=O)[C@H](CCC(=O)O)NC(=O)[C@H](CCCNC(=N)N)NC(=O)CNC(=O)[C@H](CCC(=O)O)NC(=O)[C@H](CC(C)C)NC(C)=O)C(C)C)[C@@H](C)CC)C(=O)N[C@@H](CO)C(=O)N[C@H](C(=O)N[C@@H](Cc1c[nH]c2ccccc12)C(=O)N[C@@H](CO)C(=O)NC(C)(C)C(=O)N[C@@H](CCCNC(=N)N)C(=O)N[C@@H](CCCCN)C(=O)N[C@@H](CCCCNC(C)=O)C(N)=O)[C@@H](C)O)C(=O)O)C(=O)O)C(=O)O (Ac-LEGREKVRAK(Ac)I[Aib][Aib]EGK([Suc-X2])STWS[Aib]RKK(Ac)-NH2) | 1.35 | 98 | 5900 |  | 105 | 90 | 67.5 | 
CCCCCCCCCCCCCCCC(=O)N[C@@H](CCC(=O)N[C@@H](CCC(=O)N[C@@H](CCC(=O)NCCCOCCOCCOCCCNC(=O)CCC(=O)NCCCOCCOCCOCCCNC(=O)CCC(=O)NCCCOCCOCCOCCCNC(=O)CCC(=O)NCCCC[C@H](NC(=O)[C@H](CCC(N)=O)NC(=O)CNC(=O)[C@H](CCC(=O)O)NC(=O)C(C)(C)NC(=O)C(C)(C)NC(=O)[C@@H](NC(=O)[C@H](CCCCNC(C)=O)NC(=O)[C@H](C)NC(=O)[C@H](CCCNC(=N)N)NC(=O)[C@@H](NC(=O)[C@H](CCCCN)NC(=O)[C@H](CCC(=O)O)NC(=O)[C@H](CCCNC(=N)N)NC(=O)CNC(=O)[C@H](CCC(=O)O)NC(=O)[C@H](CC(C)C)NC(C)=O)C(C)C)[C@@H](C)CC)C(=O)N[C@H](C(=O)N[C@@H](Cc1c[nH]c2ccccc12)C(=O)N[C@@H](CO)C(=O)NC(C)(C)C(=O)N[C@@H](CCCNC(=N)N)C(=O)N[C@@H](CCCCN)C(=O)N[C@@H](CCCCNC(C)=O)C(N)=O)[C@@H](C)O)C(=O)O)C(=O)O)C(=O)O (Ac-LEGREKVRAK(Ac)I[Aib][Aib]EGQK([Suc-X2])TWS[Aib]RKK(Ac)-NH2) | 25 | 90 | 12800 | 32 | > 2000 |  |  | 
CCCCCCCCCCCCCCCC(=O)N[C@@H](CCC(=O)N[C@@H](CCC(=O)N[C@@H](CCC(=O)NCCOCCOCC(=O)NCCOCCOCC(=O)NCCOCCOCC(=O)NCCOCCOCC(=O)NCCCC[C@H](NC(=O)[C@H](CCCCNC(C)=O)NC(=O)[C@H](C)NC(=O)[C@H](CCCNC(=N)N)NC(=O)[C@](C)(CCCCN)NC(=O)[C@H](CO)NC(=O)[C@H](Cc1ccccc1)NC(=O)[C@@H](NC(=O)[C@H](CO)NC(=O)[C@H](CCCC)NC(=O)CNC(=O)[C@H](CCC(=O)O)NC(=O)C(C)(C)NC(=O)C(C)(C)NC(=O)[C@@H](NC(=O)[C@H](CCCCNC(C)=O)NC(=O)[C@H](C)NC(=O)[C@H](CCCNC(=N)N)NC(=O)[C@@H](NC(=O)[C@H](CCCCN)NC(=O)[C@H](CCC(=O)O)NC(=O)[C@H](CCCNC(=N)N)NC(=O)CNC(=O)[C@H](CCC(=O)O)NC(=O)[C@H](CC(C)C)NC(C)=O)C(C)C)[C@@H](C)CC)[C@@H](C)O)C(N)=O)C(=O)O)C(=O)O)C(=O)O (Ac-LEGREKVRAK(Ac)I[Aib][Aib]EG[Nle]STFS[αMeK]RAK(Ac)K([AEEA-AEEA-AEEA-AEEA-γGlu-γGlu-γGlu-Palmitoyl])-NH2) | 0.27 | 89 | 3000 |  | 20.1 | 96 | 58 | 7.3
CCCCCCCCCCCCCCCC(=O)N[C@@H](CCC(=O)N[C@@H](CCC(=O)N[C@@H](CCC(=O)NCCCOCCOCCOCCCNC(=O)CCC(=O)NCCCOCCOCCOCCCNC(=O)CCC(=O)NCCCOCCOCCOCCCNC(=O)CCC(=O)NCCCC[C@H](NC(=O)[C@H](C)NC(=O)[C@H](CCCNC(=N)N)NC(=O)[C@@H](NC(=O)[C@H](CCCCN)NC(=O)[C@H](CCC(=O)O)NC(=O)[C@H](CCCNC(=N)N)NC(=O)CNC(=O)[C@H](CCC(=O)O)NC(=O)[C@H](CC(C)C)NC(C)=O)C(C)C)C(=O)N[C@H](C(=O)NC(C)(C)C(=O)NC(C)(C)C(=O)N[C@@H](CCC(=O)O)C(=O)NCC(=O)N[C@@H](CCC(N)=O)C(=O)N[C@@H](CO)C(=O)N[C@H](C(=O)N[C@@H](Cc1c[nH]c2ccccc12)C(=O)N[C@@H](CO)C(=O)NC(C)(C)C(=O)N[C@@H](CCCNC(=N)N)C(=O)N[C@@H](CCCCN)C(=O)N[C@@H](CCCCNC(C)=O)C(N)=O)[C@@H](C)O)[C@@H](C)CC)C(=O)O)C(=O)O)C(=O)O (Ac-LEGREKVRAK([Suc-X2])I[Aib][Aib]EGQSTWS[Aib]RKK(Ac)-NH2) | 0.61 | 95 | 12500 | 40 | 68.6 | 90 |  | 
